Measurements taken from ChEMBL document CHEMBL1201862, “PubChem BioAssay data set” (2004).
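Cultured in 96-well plates, cells were exposed to test compound for 48 hours across five concentrations. GI50 marks 50% less growth.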 Active and inactive are the calls of the source. Rule as the data show it: active = GI50 up to about 1.1 µM and inactive = higher.

Legend:
Experiment in all cases: NCI anticancer screen, dose series, 48 h
NCI/ADR-RES = tested on: NCI/ADR-RES
M19-MEL = tested on: M19-MEL
MOLT-4 = tested on: MOLT-4
SK-MEL-28 = tested on: SK-MEL-28
HCC 2998 = tested on: HCC 2998
CAKI-1 = tested on: CAKI-1
IGROV-1 = tested on: IGROV-1
KM-20L2 = tested on: KM-20L2
CCRF-CEM = tested on: CCRF-CEM
HL-60 = tested on: HL-60
K562 = tested on: K562
COLO 205 = tested on: COLO 205
MCF7 = tested on: MCF7
A549 = tested on: A549
SNB-19 = tested on: SNB-19
NCI-H226 = tested on: NCI-H226
OVCAR-4 = tested on: OVCAR-4
SK-OV-3 = tested on: SK-OV-3
HCT-15 = tested on: HCT-15
OVCAR-5 = tested on: OVCAR-5
KM12 = tested on: KM12
RPMI-8226 = tested on: RPMI-8226
DLD-1 = tested on: DLD-1
UACC-257 = tested on: UACC-257
NCI-H460 = tested on: NCI-H460
EKVX = tested on: EKVX
NCI-H23 = tested on: NCI-H23
HT-29 = tested on: HT-29
SNB-78 = tested on: SNB-78
SW-620 = tested on: SW-620
HOP-18 = tested on: HOP-18
Malme-3M = tested on: Malme-3M
DMS-114 = tested on: DMS-114
OVCAR-3 = tested on: OVCAR-3
SF-539 = tested on: SF-539
NCI-H522 = tested on: NCI-H522
OVCAR-8 = tested on: OVCAR-8
A498 = tested on: A498
SK-MEL-5 = tested on: SK-MEL-5
SK-MEL-2 = tested on: SK-MEL-2
DMS-273 = tested on: DMS-273
SNB-75 = tested on: SNB-75
SF-295 = tested on: SF-295
HCT-116 = tested on: HCT-116
UACC-62 = tested on: UACC-62
UO-31 = tested on: UO-31
U-251 = tested on: U-251
XF498 = tested on: XF498
SN12C = tested on: SN12C
HOP-62 = tested on: HOP-62
HOP-92 = tested on: HOP-92
SF-268 = tested on: SF-268
RXF 393 = tested on: RXF 393
LOX IMVI = tested on: LOX IMVI

## CCCCCCCC/C=C\CCCCCCCC(=O)O [OLEIC ACID]
NCI/ADR-RES
  GI50: 102 µM (inactive)
M19-MEL
  GI50: 101 µM (inactive)
MOLT-4
  GI50: 148 µM (inactive)
SK-MEL-28
  GI50: 149 µM (inactive)
HCC 2998
  GI50: > 434 µM (inactive)
CAKI-1
  GI50: 118 µM (inactive)
IGROV-1
  GI50: 178 µM (inactive)
KM-20L2
  GI50: > 500 µM (inactive)
CCRF-CEM
  GI50: 99.8 µM (inactive)
HL-60
  GI50: 126 µM (inactive)
K562
  GI50: 104 µM (inactive)
COLO 205
  GI50: > 500 µM (inactive)
MCF7
  GI50: 104 µM (inactive)
A549
  GI50: 109 µM (inactive)
SNB-19
  GI50: 143 µM (inactive)
NCI-H226
  GI50: 9.48 µM (inactive)
OVCAR-4
  GI50: > 291 µM (inactive)
SK-OV-3
  GI50: > 500 µM (inactive)
HCT-15
  GI50: 177 µM
OVCAR-5
  GI50: > 500 µM (inactive)
KM12
  GI50: 240 µM (inactive)
RPMI-8226
  GI50: 91.6 µM (inactive)
DLD-1
  GI50: 148 µM (inactive)
UACC-257
  GI50: 105 µM (inactive)
NCI-H460
  GI50: 101 µM (inactive)
EKVX
  GI50: 124 µM (inactive)
NCI-H23
  GI50: 87.7 µM (inactive)
HT-29
  GI50: > 500 µM (inactive)
SNB-78
  GI50: 68.7 µM (inactive)
SW-620
  GI50: 140 µM (inactive)
HOP-18
  GI50: > 500 µM (inactive)
Malme-3M
  GI50: > 500 µM (inactive)
DMS-114
  GI50: 97.7 µM (inactive)
OVCAR-3
  GI50: 184 µM (inactive)
SF-539
  GI50: 103 µM (inactive)
NCI-H522
  GI50: 101 µM (inactive)
OVCAR-8
  GI50: 99.1 µM (inactive)
A498
  GI50: > 431 µM (inactive)
SK-MEL-5
  GI50: > 212 µM (inactive)
SK-MEL-2
  GI50: 206 µM (inactive)
DMS-273
  GI50: 110 µM (inactive)
SNB-75
  GI50: 24.5 µM (inactive)
SF-295
  GI50: 99.1 µM (inactive)
HCT-116
  GI50: 114 µM (inactive)
UACC-62
  GI50: 180 µM (inactive)
UO-31
  GI50: 158 µM (inactive)
U-251
  GI50: 149 µM (inactive)
XF498
  GI50: 8.91 µM (inactive)
SN12C
  GI50: 51.6 µM (inactive)
HOP-62
  GI50: > 500 µM (inactive)
HOP-92
  GI50: > 5 µM (inactive)
SF-268
  GI50: 101 µM (inactive)
RXF 393
  GI50: 92.7 µM (inactive)
LOX IMVI
  GI50: 116 µM (inactive)
